Results taken from ChEMBL document CHEMBL1146710, “Discovery of a novel series of DHODH inhibitors by a docking procedure and QSAR refinement” (Bioorg Med Chem Lett, 2004).
pIC50: −log10 of the molar value.

Target: Dihydroorotate dehydrogenase (quinone), mitochondrial (Homo sapiens, UniProt Q02127)
Sequence (Q02127 whole entry): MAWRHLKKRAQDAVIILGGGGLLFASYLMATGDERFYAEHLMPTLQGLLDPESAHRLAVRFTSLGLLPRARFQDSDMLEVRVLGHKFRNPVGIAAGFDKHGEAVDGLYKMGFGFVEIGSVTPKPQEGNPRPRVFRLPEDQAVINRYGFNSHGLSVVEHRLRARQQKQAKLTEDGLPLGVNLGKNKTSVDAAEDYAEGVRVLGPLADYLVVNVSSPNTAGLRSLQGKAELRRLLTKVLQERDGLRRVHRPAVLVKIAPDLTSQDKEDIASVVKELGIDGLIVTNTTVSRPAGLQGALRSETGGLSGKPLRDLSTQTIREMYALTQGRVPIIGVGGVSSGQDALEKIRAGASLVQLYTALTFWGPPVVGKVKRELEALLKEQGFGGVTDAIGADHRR
Description: In vitro inhibitory activity against human dihydroorotate dehydrogenase (DHODH)

| SMILES | pIC50 |
| --- | --- |
| CN(C)c1ccc(-c2ccc(NC(=O)C3=C(C(=O)O)CCC3)cc2Cl)cc1 | 7.30 |
| O=C(O)C1=C(C(=O)Nc2ccc(-c3ccc(OC(F)(F)F)cc3)cc2F)CCC1 | 5.24 |
| N#Cc1cc(-c2cccc(OC(F)(F)F)c2)ccc1NC(=O)C1=C(C(=O)O)CCC1 | 6.43 |
| COc1cccc(-c2ccc(NC(=O)C3=C(C(=O)O)CCC3)c(OC)c2)c1 | 6.77 |
| O=C(O)C1=C(C(=O)Nc2ccc(-c3cccc(OC(F)(F)F)c3)cc2F)CCC1 | 6.55 |
| O=C(O)C1=C(C(=O)Nc2c(F)cc(-c3ccccc3F)cc2F)CCC1 | 7.35 |
| CN(C)c1ccc(-c2cc(F)c(NC(=O)C3=C(C(=O)O)CCC3)c(F)c2)cc1 | 6.21 |
| O=C(O)C1=C(C(=O)Nc2c(F)c(F)c(-c3cccc(OC(F)(F)F)c3)c(F)c2F)CCC1 | 8.15 |
| O=C(O)C1=C(C(=O)Nc2ccc(-c3ccc(Br)cc3)cc2Cl)CCC1 | 5.54 |
| O=C(O)C1=C(C(=O)Nc2ccc(-c3cccc(OC(F)(F)F)c3)cc2[N+](=O)[O-])CCC1 | 6.41 |
| O=C(O)C1=C(C(=O)Nc2ccc(-c3cccc(OC(F)(F)F)c3)cc2Cl)CCC1 | 6.54 |
| Cc1cc(-c2cccc(OC(F)(F)F)c2)ccc1NC(=O)C1=C(C(=O)O)CCC1 | 6.82 |
| COc1cc(-c2ccccc2Cl)ccc1NC(=O)C1=C(C(=O)O)CCC1 | 6.65 |
| O=C(O)C1=C(C(=O)Nc2ccc(-c3cccc(OC(F)(F)F)c3)cc2C(F)(F)F)CCC1 | 6.08 |
| O=C(O)C1=C(C(=O)Nc2c(F)cc(-c3cccc(OC(F)(F)F)c3)cc2F)CCC1 | 7.48 |
| CC(C)(C)c1ccc(-c2ccc(NC(=O)C3=C(C(=O)O)CCC3)cc2Cl)cc1 | 7.10 |
| COc1ccccc1-c1ccc(NC(=O)C2=C(C(=O)O)CCC2)c(Cl)c1 | 6.51 |
| O=C(O)C1=C(C(=O)Nc2c(F)cc(-c3ccccc3Cl)cc2F)CCC1 | 7.74 |
| O=C(O)C1=C(C(=O)Nc2ccc(-c3ccc(Br)cc3)cc2F)CCC1 | 6.13 |
| O=C(O)C1=C(C(=O)Nc2ccc(-c3cccc(OC(F)(F)F)c3)c(Cl)c2)CCC1 | 7.70 |
| COc1ccc(-c2cc(F)c(NC(=O)C3=C(C(=O)O)CCC3)c(F)c2)c(OC)c1 | 7.05 |
| O=C(O)C1=C(C(=O)Nc2ccc(-c3cccc(O)c3)cc2F)CCC1 | 6.21 |
| COc1ccccc1-c1c(F)c(F)c(NC(=O)C2=C(C(=O)O)CCC2)c(F)c1F | 8.10 |
| COc1ccc(-c2ccc(NC(=O)C3=C(C(=O)O)CCC3)c(F)c2)cc1 | 5.77 |
| O=C(O)C1=C(C(=O)Nc2ccc(-c3ccccc3)cc2)CCC1 | 6.39 |
| O=C(O)C1=C(C(=O)Nc2ccc(-c3ccc(Br)cc3)c(Cl)c2)CCC1 | 7.15 |
| O=C(O)C1=C(C(=O)Nc2ccc(-c3cccc4ccccc34)cc2C(F)(F)F)CCC1 | 6.74 |
| CCOc1cccc(-c2cc(F)c(NC(=O)C3=C(C(=O)O)CCC3)c(F)c2)c1 | 7.77 |
| COc1ccc(-c2ccc(NC(=O)C3=C(C(=O)O)CCC3)c(Cl)c2)cc1 | 5.08 |
